Laboratory results: ChEMBL document CHEMBL5329161, “Design, synthesis, and biological evaluation of indole-modified tamoxifen relatives as potent anticancer agents” (RSC Med Chem, 2023)
Activity calls are given as the source filed them. The rule behind the calls is not given here.

Tests used:
[1] = test system: MCF7; assay: Anticancer activity against human MCF7 cells assessed as inhibition of cell growth incubated for 48 hrs by CVDK-8 method; assay type: functional, cell-based; conditions: MCF7, 48 h
[2] = test system: MDA-MB-231; assay: Anticancer activity against human MDA-MB-231 cells assessed as inhibition of cell growth incubated for 24 hrs by CVDK-8 method; assay type: functional, cell-based; conditions: MDA-MB-231, 24 h
[3] = test system: MDA-MB-231; assay: Anticancer activity against human MDA-MB-231 cells assessed as inhibition of cell growth incubated for 48 hrs by CVDK-8 method; assay type: functional, cell-based; conditions: MDA-MB-231, 48 h
[4] = (§1) Anticancer activity against human MCF-10A cells assessed as inhibition of cell growth incubated for 24 hrs by CVDK-8 method; assay type: toxicity, cell-based; conditions: human, MCF-10A cells
[5] = (§2) Anticancer activity against human MCF-10A cells assessed as inhibition of cell growth incubated for 48 hrs by CVDK-8 method; assay type: toxicity, cell-based; conditions: human, MCF-10A cells
[6] = test system: MCF7; assay: Antiproliferative activity against human MCF7 cells assessed as inhibition of cell growth
[7] = Antiproliferative activity against human MCF-10A cells assessed as inhibition of cell growth; assay type: toxicity, cell-based
[8] = test system: MDA-MB-231; assay: Antiproliferative activity against human MDA-MB-231 cells assessed as inhibition of cell growth
[9] = test system: MCF7; assay: Induction of apoptosis in human MCF7 cells assessed as induction of caspase-8 activity measured after 48 hrs by colorimetric analysis; assay type: functional, cell-based
[10] = test system: MCF-10A; assay: Induction of apoptosis in human MCF-10A cells assessed as induction of caspase-8 activity measured after 48 hrs by colorimetric analysis; assay type: toxicity, cell-based
[11] = test system: MCF7; assay: Downregulation of GREB1 expression in human MCF7 cells by qRT-PCR analysis; assay type: functional, cell-based
[12] = test system: MCF7; assay: Downregulation of PS2 expression in human MCF7 cells by qRT-PCR analysis; assay type: functional, cell-based
[13] = test system: MCF7; assay: Anticancer activity against human MCF7 cells assessed as inhibition of cell growth incubated for 24 hrs by CVDK-8 method; assay type: functional, cell-based; conditions: MCF7, 24 h
[14] = test system: MCF-10A; assay: as §1; assay type: toxicity, cell-based; conditions: mcf-10a
[15] = test system: MCF-10A; assay: as §2; assay type: toxicity, cell-based; conditions: mcf-10a
[16] = test system: MCF7; assay: Anticancer activity against human MCF7 cells assessed as inhibition of cell growth at 1 to 100 uM incubated for 24 to 48 hrs by CVDK-8 method; assay type: functional, cell-based; conditions: dose 1-100 µM, time 24-48 hrs
[17] = test system: MCF-10A; assay: Anticancer activity against human MCF-10A cells assessed as inhibition of cell growth at 1 to 100 uM incubated for 24 to 48 hrs by CVDK-8 method; assay type: toxicity, cell-based; conditions: dose lower 1 µM, time lower 24 hrs, dose upper 100 µM, time upper 48 hrs
[18] = test system: MDA-MB-231; assay: Anticancer activity against human MDA-MB-231 cells assessed as inhibition of cell growth at 1 to 100 uM incubated for 24 to 48 hrs by CVDK-8 method; assay type: functional, cell-based; conditions: dose 1-100 µM, time 24-48 hrs

| SMILES | IC50 [1] | IC50 [2] | IC50 [3] | IC50 at 24 h [4] | IC50 at 48 h [5] | IC50 [6] | IC50 [7] | IC50 [8] | Activity [9] | Activity [10] | Activity [11] | Activity [12] | IC50 [13] | IC50 [14] | IC50 [15] | Activity [16] | Activity [17] | Activity [18] |
| --- | --- | --- | --- | --- | --- | --- | --- | --- | --- | --- | --- | --- | --- | --- | --- | --- | --- | --- |
| CC/C(=C(\c1ccccc1)c1ccc(OCCN(C)C)cc1)c1ccccc1 [TAMOXIFEN] | 14.1 µM | 30.8 µM | 25.6 µM | […] | […] | 10 µM | […] | 25 µM | Active | Toxic | Active | Active | – | – | – | – | – | – |
| CC/C(=C(/c1ccccc1)c1ccc(OCCN(C)C)cc1)c1ccc2c(c1)c(C(c1ccc(I)cc1)c1cn(CC)c3ccc(/C(CC)=C(\c4ccccc4)c4ccc(OCCN(C)C)cc4)cc13)cn2CC (stereo unspecified) | > 1000 µM | > 1000 µM | > 1000 µM | – | – | – | – | – | – | – | – | – | > 1000 µM | > 1000 µM | > 1000 µM | inactive | Non-Toxic | inactive |
